Assay results from ChEMBL document CHEMBL1135190, “A comparison of the binding of three series of nicotinic ligands” (Bioorg Med Chem Lett, 2002).

These compounds were tested against Neuronal acetylcholine receptor (assay: Binding affinity towards nicotinic acetylcholine receptor using [3H]nicotine as radioligand in rat brain homogenates).
Assay type: tissue-based

SMILES | Ki [nM]
CCN(C)Cc1cncc(OC)c1 | 115
CN1CCCC1c1cnc2cc3ccncc3cc2c1 (stereo unspecified) | 11.2
CCN(C)CCOc1cncc(Br)c1 | 447
CCN(C)Cc1cnccc1Cl | 41
CCN(C)CCOc1cncc(OC)c1 | 16
CCN(C)Cc1cnc2cc3ccncc3cc2c1 | 1110
CCN(C)Cc1cnccc1F | 93
CCN(C)CCOc1ccc(OC)nc1 | 4070
CN1CCCC1c1ccc(Br)nc1 (stereo unspecified) | 0.45
CCN(C)CCOc1ccc(Br)nc1 | 290
CN1CCCC1c1cncc(F)c1 (stereo unspecified) | 1.03
CCN(C)Cc1ccc(C)nc1 | 66
CCN(C)Cc1ccc(Br)nc1 | 62
CCN(C)CCOc1cccnc1 | 22
CN1CCCC1c1cncc(Cl)c1 (stereo unspecified) | 0.63
c1ccc2ncc(C3CCCN3)cc2c1 (stereo unspecified) | 93
